In patent US10233182B2, “Substituted spirocyclic inhibitors of autotaxin” (X-Rx, Inc., priority 2014, dated 2019):
Structures can show the parent of a compound that is named as a salt.

Biological target: Autotaxin (Homo sapiens (Human), UniProt Q13822)
Test: Autotaxin LPC Cascade Assay
Type: biochemical
Details: Autotaxin 5 nM, LPC 100 μM, choline oxidase/HRP/Ampliflu Red fluorescence read-out, 2% DMSO, RT; read-out: IC50 ATX Activity
In short: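 Choline liberated from LPC by autotaxin during 1 h, after a 10-min RT compound preincubation, was converted through choline oxidase/HRP to a fluorescent Ampliflu Red product.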

SMILES	IC50
CN1C(=O)N(c2ccc3[nH]ncc3c2)C2(CCN(C(=O)[C@H](NC(=O)c3cc(C(F)(F)F)ccc3F)C3CCCC3)CC2)C1=O [Example 57, (R)—N-(2-(1-(1H-Indazol-5-yl)-3-methyl-2,4-dioxo-1,3,8-triazaspiro[4.5]decan-8-yl)-1-cyclopentyl-2-oxoethyl)-2-fluoro-5-(trifluoromethyl)benzamide]	< 500 nM
CN1C(=O)N(c2ccc3[nH]ncc3c2)C2(CCN(C(=O)[C@H](NC(=O)c3cc(C(F)(F)F)ccc3F)C3CCC3)CC2)C1=O [Example 58, (R)—N-(2-(1-(1H-Indazol-5-yl)-3-methyl-2,4-dioxo-1,3,8-triazaspiro[4.5]decan-8-yl)-1-cyclobutyl-2-oxoethyl)-2-fluoro-5-(trifluoromethyl)benzamide]	< 500 nM
CC(C)[C@@H](NC(=O)c1cccc(C(F)(F)F)c1)C(=O)N1CCC2(CC1)C(=O)N(C)C(=O)N2c1ccc2[nH]ncc2c1 [Example 59, (R)—N-(1-(1-(1H-Indazol-5-yl)-3-methyl-2,4-dioxo-1,3,8-triazaspiro[4.5]decan-8-yl)-3-methyl-1-oxobutan-2-yl)-3-(trifluoromethyl)benzamide]	< 500 nM
CC(C)[C@@H](NC(=O)c1cc(Cl)cc(C(F)(F)F)c1)C(=O)N1CCC2(CC1)C(=O)N(C)C(=O)N2c1ccc2[nH]ncc2c1 [Example 60, (R)—N-(1-(1-(1H-Indazol-5-yl)-3-methyl-2,4-dioxo-1,3,8-triazaspiro[4.5]decan-8-yl)-3-methyl-1-oxobutan-2-yl)-3-chloro-5-(trifluoromethyl)benzamide]	< 500 nM
Cc1ccc(C(F)(F)F)cc1C(=O)N[C@@H](C(=O)N1CCC2(CC1)C(=O)N(C)C(=O)N2c1ccc2[nH]ncc2c1)C(C)C [Example 61, (R)—N-(1-(1-(1H-Indazol-5-yl)-3-methyl-2,4-dioxo-1,3,8-triazaspiro[4.5]decan-8-yl)-3-methyl-1-oxobutan-2-yl)-2-methyl-5-(trifluoromethyl)benzamide]	≥ 1000 nM
CC(C)[C@@H](NC(=O)c1cc(OC(F)(F)F)ccc1F)C(=O)N1CCC2(CC1)C(=O)N(C)C(=O)N2c1ccc2[nH]ncc2c1 [Example 62, (R)—N-(1-(1-(1H-Indazol-5-yl)-3-methyl-2,4-dioxo-1,3,8-triazaspiro[4.5]decan-8-yl)-3-methyl-1-oxobutan-2-yl)-2-fluoro-5-(trifluoromethoxy)benzamide]	< 500 nM
COc1ccc(F)c(C(=O)N[C@@H](C(=O)N2CCC3(CC2)C(=O)N(C)C(=O)N3c2ccc3[nH]ncc3c2)C(C)C)c1 [Example 63, (R)—N-(1-(1-(1H-Indazol-5-yl)-3-methyl-2,4-dioxo-1,3,8-triazaspiro[4.5]decan-8-yl)-3-methyl-1-oxobutan-2-yl)-2-fluoro-5-methoxybenzamide]	500 to 1000 nM
CC(C)[C@@H](NC(=O)c1cc(OC(F)F)ccc1F)C(=O)N1CCC2(CC1)C(=O)N(C)C(=O)N2c1ccc2[nH]ncc2c1 [Example 64, (R)—N-(1-(1-(1H-Indazol-5-yl)-3-methyl-2,4-dioxo-1,3,8-triazaspiro[4.5]decan-8-yl)-3-methyl-1-oxobutan-2-yl)-5-(difluoromethoxy)-2-fluorobenzamide]	< 500 nM
CC(C)[C@@H](NC(=O)c1cc(Cl)ccc1Cl)C(=O)N1CCC2(CC1)C(=O)N(C)C(=O)N2c1ccc2[nH]ncc2c1 [Example 65, (R)—N-(1-(1-(1H-Indazol-5-yl)-3-methyl-2,4-dioxo-1,3,8-triazaspiro[4.5]decan-8-yl)-3-methyl-1-oxobutan-2-yl)-2,5-dichlorobenzamide]	≥ 1000 nM
CC(C)[C@@H](NC(=O)c1cc(F)ccc1F)C(=O)N1CCC2(CC1)C(=O)N(C)C(=O)N2c1ccc2[nH]ncc2c1 [Example 66, (R)—N-(1-(1-(1H-Indazol-5-yl)-3-methyl-2,4-dioxo-1,3,8-triazaspiro[4.5]decan-8-yl)-3-methyl-1-oxobutan-2-yl)-2,5-difluorobenzamide]	500 to 1000 nM
CC(C)[C@@H](NC(=O)C12CC3CC(CC(C3)C1)C2)C(=O)N1CCC2(CC1)C(=O)N(C)C(=O)N2c1ccc2[nH]ncc2c1 [Example 67, (R)—N-(1-(1-(1H-Indazol-5-yl)-3-methyl-2,4-dioxo-1,3,8-triazaspiro[4.5]decan-8-yl)-3-methyl-1-oxobutan-2-yl)-1-admantanecarboxly amide]	≥ 1000 nM
CC(C)[C@@H](NC(=O)c1cc(C(F)(F)F)ccc1Cl)C(=O)N1CCC2(CC1)C(=O)N(C)C(=O)N2c1ccc2[nH]ncc2c1 [Example 68, (R)—N-(1-(1-(1H-Indazol-5-yl)-3-methyl-2,4-dioxo-1,3,8-triazaspiro[4.5]decan-8-yl)-3-methyl-1-oxobutan-2-yl)-2-chloro-5-(trifluoromethyl)benzamide]	≥ 1000 nM
CC(C)[C@H](NC(=O)c1cc(C(F)(F)F)ccc1F)C(=O)N1CCC2(CC1)C(=O)N(C)C(=O)N2c1ccc2[nH]ncc2c1 [Example 69, (S)—N-(1-(1-(1H-Indazol-5-yl)-3-methyl-2,4-dioxo-1,3,8-triazaspiro[4.5]decan-8-yl)-3-methyl-1-oxobutan-2-yl)-2-fluoro-5-(trifluoromethyl)benzamide]	≥ 1000 nM
CN1C(=O)N(c2ccc3[nH]ncc3c2)C2(CCN(C(=O)CNC(=O)c3cc(C(F)(F)F)ccc3F)CC2)C1=O [Example 70, N-(2-(1-(1H-Indazol-5-yl)-3-methyl-2,4-dioxo-1,3,8-triazaspiro[4.5]decan-8-yl)-2-oxoethyl)-2-fluoro-5-(trifluoromethyl)benzamide]	≥ 1000 nM
CN1C(=O)N(c2ccc3[nH]ncc3c2)C2(CCN(C(=O)C3(NC(=O)c4cc(C(F)(F)F)ccc4F)CC3)CC2)C1=O [Example 71, N-(1-(1-(1H-Indazol-5-yl)-3-methyl-2,4-dioxo-1,3,8-triazaspiro[4.5]decane-8-carbonyl)cyclopropyl)-2-fluoro-5-(trifluoromethyl)benzamide]	≥ 1000 nM
C[C@@H](NC(=O)c1cc(C(F)(F)F)ccc1F)C(=O)N1CCC2(CC1)C(=O)N(C)C(=O)N2c1ccc2[nH]ncc2c1 [Example 72, (R)—N-(1-(1-(1H-Indazol-5-yl)-3-methyl-2,4-dioxo-1,3,8-triazaspiro[4.5]decan-8-yl)-1-oxopropan-2-yl)-2-fluoro-5-(trifluoromethyl)benzamide]	≥ 1000 nM
CN1C(=O)N(c2ccc3[nH]ncc3c2)C2(CCN(C(=O)C(C)(C)NC(=O)c3cc(C(F)(F)F)ccc3F)CC2)C1=O [Example 74, N-(1-(1-(1H-Indazol-5-yl)-3-methyl-2,4-dioxo-1,3,8-triazaspiro[4.5]decan-8-yl)-2-methyl-1-oxopropan-2-yl)-2-fluoro-5-(trifluoromethyl)benzamide]	≥ 1000 nM
CC(C)[C@@H](NC(=O)c1cc(C(F)(F)F)ccc1F)C(=O)N1CCC2(CC1)C(=O)N(C)C(=O)N2CC1CC1 [Example 75, (R)—N-(1-(1-(Cyclopropylmethyl)-3-methyl-2,4-dioxo-1,3,8-triazaspiro[4.5]decan-8-yl)-3-methyl-1-oxobutan-2-yl)-2-fluoro-5-(trifluoromethyl)benzamide]	≥ 1000 nM
CC(C)[C@@H](NC(=O)c1cc(C(F)(F)F)ccc1F)C(=O)N1CCC2(CC1)C(=O)N(C)C(=O)N2C1CC1 [Example 76, (R)—N-(1-(1-Cyclopropyl-3-methyl-2,4-dioxo-1,3,8-triazaspiro[4.5]decan-8-yl)-3-methyl-1-oxobutan-2-yl)-2-fluoro-5-(trifluoromethyl)benzamide]	500 to 1000 nM
CC(C)[C@@H](NC(=O)c1cc(C(F)(F)F)ccc1F)C(=O)N1CCC2(CC1)C(=O)N(C)C(=O)N2C1CCOCC1 [Example 77, (R)-2-Fluoro-N-(3-methyl-1-(3-methyl-2,4-dioxo-1-(tetrahydro-2H-pyran-4-yl)-1,3,8-triazaspiro[4.5]decan-8-yl)-1-oxobutan-2-yl)-5-(trifluoromethyl)benzamide]	500 to 1000 nM
CC(C)[C@@H](NC(=O)c1cc(C(F)(F)F)ccc1F)C(=O)N1CCC2(CC1)C(=O)N(C)C(=O)N2[C@@H](C)c1ccccc1 [Example 78, 2-Fluoro-N—((R)-3-methyl-1-(3-methyl-2,4-dioxo-1-((S)-1-phenylethyl)-1,3,8-triazaspiro[4.5]decan-8-yl)-1-oxobutan-2-yl)-5-(trifluoromethyl)benzamide]	≥ 1000 nM
CC(C)[C@@H](NC(=O)c1cc(C(F)(F)F)ccc1F)C(=O)N1CCC2(CC1)C(=O)N(C)C(=O)N2CC1CCOCC1 [Example 79, (R)-2-Fluoro-N-(3-methyl-1-(3-methyl-2,4-dioxo-1-((tetrahydro-2H-pyran-4-yl)methyl)-1,3,8-triazaspiro[4.5]decan-8-yl)-1-oxobutan-2-yl)-5-(trifluoromethyl)benzamide]	500 to 1000 nM
CC(C)[C@@H](NC(=O)c1cc(C(F)(F)F)ccc1F)C(=O)N1CCC2(CC1)C(=O)N(C)C(=O)N2[C@H](C)c1ccccc1 [Example 80, 2-Fluoro-N—((R)-3-methyl-1-(3-methyl-2,4-dioxo-1-((R)-1-phenylethyl)-1,3,8-triazaspiro[4.5]decan-8-yl)-1-oxobutan-2-yl)-5-(trifluoromethyl)benzamide]	≥ 1000 nM
CC(C)[C@@H](NC(=O)c1cc(C(F)(F)F)ccc1F)C(=O)N1CCC2(CC1)C(=O)N(C)C(=O)N2c1ccc(OCC2CNC2)cc1 [Example 81, (R)—N-(1-(1-(4-(Azetidin-3-ylmethoxy)phenyl)-3-methyl-2,4-dioxo-1,3,8-triazaspiro[4.5]decan-8-yl)-3-methyl-1-oxobutan-2-yl)-2-fluoro-5-(trifluoromethyl)benzamide trifluoroacetic Acid Salt]	≥ 1000 nM
CC(C)[C@@H](NC(=O)c1cc(C(F)(F)F)ccc1F)C(=O)N1CCC2(CC1)C(=O)N(C)C(=O)N2c1ccc(OCC#N)cc1 [Example 82, (R)—N-(1-(1-(4-(cyanomethoxy)phenyl)-3-methyl-2,4-dioxo-1,3,8-triazaspiro[4.5]decan-8-yl)-3-methyl-1-oxobutan-2-yl)-2-fluoro-5-(trifluoromethyl)benzamide]	500 to 1000 nM
